Consider 1 compound from US20150025012A1, “METHODS AND COMPOSITIONS FOR IDENTIFICATION, ASSESSMENT AND TREATMENT OF CANCERS ASSOCIATED WITH HEDGEHOG SIGNALING” (Infinity Pharmaceuticals, Inc., priority 2010, published 2015).

Test [1] concerns subcutaneous L3.6pl tumor model. The experiment in a line: Tumor perfusion by contrast enhanced high frequency ultrasound. It counts as in vivo, mice. Particulars: IPI-926 orally 40 mg/kg for seven days, compared to vehicle. Here is the method:
The L3.6pl tumor cell line was injected subcutaneously and treatment with IPI-926 was initiated. IPI-926 or vehicle was administered orally at 40 mg/kg for seven consecutive days. On the eighth day, animals were subjected to ultrasound image capture and analysis using the Vevo 2100 high frequency ultrasound instrument (Visualsonics) in conjunction with contrast enhancement (microbubbles) during the imaging procedure. Contrast agent was administered by iv administration during the imaging procedure and quantified by measuring echogenic signal derived from the contrast agent over time.

For test [2], the system named is Hedgehog pathway. The note with it: after single administration; cited from earlier work.
Test [3] relates to Gli1. As to the kind of experiment: Nuclear Gli1 immunohistochemical staining of BCC lesion biopsies pre- and post-treatment. The format is in vivo, human. Here is the method: For immunohistochemical (IHC) detection, tissue samples can be fixed in 10% neutral buffered formalin at room temperature before processing for paraffin embedding. The length of fixation depends on the size of the tissue, for example, overnight but not more than 22-24 hours for large tissues; and no more than 2 hours for small core or needle biopsies. The fixed tissues are sectioned to 7 microns […] and mounted on Superfrost Microscope™ slides (Fisher Scientific).
Prior to incubation with anti-Gli1 antibody, antigen retrieval can be performed to break the protein cross-links formed by formalin fixation and thereby reveal hidden antigens. Antigen retrieval buffers with different buffer compositions and pH are commercially available, for example, CC1 (Tris/EDTA, pH 8.0; Ventana, Cat. No. 950-124); CC2 (citrate, pH 6.0; Ventana, Cat. No. 950-123); citrate buffer (pH 6.0; Invitrogen, Cat. No. 00-5000); Target Retrieval Solution (citrate, pH 6.1; Dako, Cat. No. S170084); Target Retrieval Solution (Tris/EDTA, pH 9.0; Dako, Cat. No. S236884); Diva Decloaker (citrate, pH 6.2; Biocare, Cat. No. DV2004 mM); and EDTA Decloaker (EDTA based, pH 8.5; Biocare, Cat. No. CB917 L).
Anti-Gli1 antibodies that can be used to detect nuclear Gli1 protein in tumor samples are commercially available. Exemplary anti-Gli1 antibodies include, e.g., rabbit polyclonal and monoclonal antibody from Cell Signaling Technology (Cat. Nos. 2553 and 3538, respectively); rabbit polyclonal antibody (H-300) from Santa Cruz Biotechnology (Cat. No. se-20687, described in Chung et al., J. Clin. Oncol. 2011; 29(10):1326-34); rabbit polyclonal antibody from Abcam (Cat. No. ab92611); rabbit polyclonal antibody from Abnova (Cat. No. PAB10214); rabbit polyclonal antibody from GenWay Biotech (Cat. No. 18-732-292074); rabbit polyclonal antibody from LifeSpan BioSciences (Cat. No. LS-C66529-50); rabbit polyclonal antibody from Novus Biologicals (Cat. No. NBP1-03294); mouse polyclonal antibody from ProSci (Cat. No. 49-519); goat polyclonal antibody from R&D Systems (Cat. No. AF3455); and rabbit polyclonal antibody from United States Biological (Cat. No. G2035-51A).
Detection of tumor nuclear Gli1 staining in basal cell carcinomas (BCC) was performed using the protocols described in Example 9. FIGS. 23C and 23D show nuclear staining of Gli1 in biopsy samples of a BCC lesion pre- and 22-day post-treatment of IPI-926.
The definition of H-score is known in the art, e.g., as described in Detre, S. et al. (1995) J. Clin. Pathol. […] The intensity in the malignant cell nuclei can be scored as 0, 1, 2, or 3. […] The total number of cells in each field and the number of cells stained at each intensity are counted. The average percentage positive can be calculated and analyzed as described in Detre, S. et al. (1995) supra.

Setting [4] is: post treatment versus pre treatment BCC sample.

“Also recorded” adds a separate entry of the source.

On to `CC1=C2C[C@H]3[C@@H](CC[C@@H]4C[C@H](NS(C)(=O)=O)CC[C@@]43C)[C@@H]2CC[C@@]2(C1)O[C@@H]1C[C@H](C)CN[C@H]1[C@H]2C` [IPI-926], for which the “time to reach peak contrast” value in test [1] is given as “decrease; also recorded: change”. Further, the “Hedgehog pathway inhibition in stromal cells” value in test [2] was “rapid and sustained Hedgehog pathway inhibition”. Moreover, in test [3] (setting [4]), the “overall reduction of Gli1 protein staining” value was 57% and the “reduction in nuclear Gli1 stain” value is listed as 60%. Further, the “nuclei stained positive for Gli1” value in test [3] (post-treatment (27% before treatment)) is 16%. Moreover, the “H-score of Gli1 staining” value in test [3] (post-treatment (100 before treatment)) stood at 57.
